Measured values published in patent publication US5965569A, “Polycyclic aminopyridine compounds which are acetylcholinesterase inhibitors, process for preparing them and their use” (priority 1995, dated 1999).
Counter-ions that a name gives are not always drawn. Like-named read-outs stand apart in the source and are kept apart here.

Columns and labels:
acetylcholinesterase = acetylcholinesterase (Homo sapiens, UniProt P22303); assay: Acetylcholinesterase-inhibiting capacity, colorimetric method of Ellman et al.; assay type: biochemical
Chain of acetylcholinesterase (P22303 32-614): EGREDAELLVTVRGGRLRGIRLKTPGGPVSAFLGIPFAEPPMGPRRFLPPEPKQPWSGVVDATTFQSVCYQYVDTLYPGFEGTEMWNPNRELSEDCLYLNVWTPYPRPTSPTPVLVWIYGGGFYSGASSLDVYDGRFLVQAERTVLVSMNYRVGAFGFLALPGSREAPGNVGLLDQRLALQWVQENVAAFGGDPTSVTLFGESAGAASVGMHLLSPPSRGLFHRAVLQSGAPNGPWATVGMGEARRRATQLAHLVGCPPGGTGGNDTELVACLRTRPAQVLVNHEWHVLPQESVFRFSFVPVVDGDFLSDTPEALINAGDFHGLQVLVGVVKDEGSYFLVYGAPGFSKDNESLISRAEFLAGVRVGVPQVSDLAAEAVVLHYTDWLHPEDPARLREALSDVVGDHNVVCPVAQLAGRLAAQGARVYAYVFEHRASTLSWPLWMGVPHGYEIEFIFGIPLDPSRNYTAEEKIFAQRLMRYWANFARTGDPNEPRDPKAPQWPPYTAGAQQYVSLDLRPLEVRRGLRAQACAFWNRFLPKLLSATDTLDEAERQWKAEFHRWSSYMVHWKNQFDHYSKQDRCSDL

[1] = administered intravenously in combination with lecithin, cited from earlier work
[2] = Table 8, with respect to tacrine under the same conditions
[3] = Table 8, with respect to tacrine under the same conditions, hydrochloride

Row | SMILES | IC50 tacrine/IC50 compound (ratio of the IC50 of tacrine to the IC50 of each compound) (acetylcholinesterase; [2]) | IC50 tacrine/IC50 compound (ratio of the IC50 of tacrine to the IC50 of each compound) (acetylcholinesterase) | other results
1 | CCC1=CC2Cc3nc4ccccc4c(N)c3C(C1)C2 (racemic) [Icw, 12-Amino-9-ethyl-6,7,10,11-tetrahydro-7,11-methanocycloocta[b]quinoline] | 3.38 |  | 
2 | CC1=CC2Cc3nc4cccc(F)c4c(N)c3C(C1)C2 (stereo not shown) [Ibx, 12-Amino-1-fluoro-6,7,10,11-tetrahydro-9-methyl-7,11-methanocycloocta[b]quinoline] | 4.14 |  | 
3 | Nc1c2c(nc3ccccc13)CC1C=C(c3ccccc3)CC2C1 (stereo not shown) [Ifw, 12-Amino-9-phenyl-6,7,10,11-tetrahydro-7,11-methanocycloocta[b]quinoline] | 1.03 |  | 
4 | CC1=CC2Cc3nc4ccccc4c(N)c3C(C1)C2 (stereo not drawn) [(+) --Ibw] |  | 0.40 | 
5 | CCC1=CC2Cc3nc4ccccc4c(N)c3C(C1)C2 (single isomer, unassigned; (+)) [(+) --Icw, (+)-12-Amino-6,7,10,11-tetrahydro-9-ethyl-7,11-methanocycloocteno[b]quinoline hydrochloride] |  |  | IC50 tacrine/IC50 compound (ratio of the IC50 of tacrine to the IC50 of each compound) (acetylcholinesterase; [3]): 0.15
6 | CC1=CC2Cc3nc4cc(F)ccc4c(N)c3C(C1)C2 (stereo not shown) [Iby, 12-Amino-3-fluoro-6,7,10,11-tetrahydro-9-methyl-7,11-methanocycloocta[b]quinoline] | 15.28 |  | 
7 | Nc1c2c(nc3ccccc13)CCCC2 [tacrine, 9-amino-1,2,3,4-tetrahydroacridine] |  |  | usefulness in the treatment of Alzheimer's disease (in words) [1]: proves useful in the treatment of Alzheimer's disease; toxicity (in words) ([1]; drawback of tacrine): high toxicity
8 | CCC1=CC2Cc3nc4ccccc4c(N)c3C(C1)C2 (single isomer, unassigned; (-)) [(-) --Icw, (-)-12-Amino-6,7,10,11-tetrahydro-9-ethyl-7,11-methanocycloocteno[b]quinoline hydrochloride] |  |  | IC50 tacrine/IC50 compound (ratio of the IC50 of tacrine to the IC50 of each compound) (acetylcholinesterase; [3]): 4.80; inhibitory activity against the enzyme acetylcholinesterase (in words) (acetylcholinesterase; qualitative comparison with tacrine or with enantiomer): much more active than their enantiomers
9 | CC1=CC2Cc3nc4ccccc4c(N)c3C(C1)C2 (stereo not drawn) [(-) --Ibw] |  | 2.80 | inhibitory activity against the enzyme acetylcholinesterase (in words) (acetylcholinesterase): much more active than their enantiomers
10 | CC1=CC2Cc3nc4ccccc4c(N)c3C(C1)C2 (racemic) [Ibw, 12-Amino-6,7,10,11-tetrahydro-9-methyl-7,11-methanocycloocta[b]quinoline] |  | 2.00 | 
